Results: ChEMBL document CHEMBL1152560, “Substituted 2-arylbenzothiazoles as kinase inhibitors: hit-to-lead optimization” (Bioorg Med Chem, 2009)

Columns and labels:
[1] = target: RAC-beta serine/threonine-protein kinase (Homo sapiens) (UniProt P31751); assay: Residual activity of AKT2 at 10 uM by microplate scintillation counting
[2] = target: T1, Serine/threonine-protein kinase VRK1 (Homo sapiens) (UniProt Q99986); assay: Residual activity of VRK1 at 10 uM by microplate scintillation counting
T1 sequence (whole entry): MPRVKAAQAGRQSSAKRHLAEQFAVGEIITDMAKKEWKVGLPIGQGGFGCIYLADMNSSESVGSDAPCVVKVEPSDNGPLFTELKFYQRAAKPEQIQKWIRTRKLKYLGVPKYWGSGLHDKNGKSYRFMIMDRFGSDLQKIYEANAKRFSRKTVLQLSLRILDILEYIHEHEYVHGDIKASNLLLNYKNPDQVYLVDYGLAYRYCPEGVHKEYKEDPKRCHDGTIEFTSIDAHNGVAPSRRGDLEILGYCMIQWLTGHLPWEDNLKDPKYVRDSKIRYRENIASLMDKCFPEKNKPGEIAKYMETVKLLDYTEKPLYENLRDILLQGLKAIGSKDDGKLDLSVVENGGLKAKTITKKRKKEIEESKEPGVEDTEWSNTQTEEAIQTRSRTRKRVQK

[3] = target: RAC-alpha serine/threonine-protein kinase (Homo sapiens) (UniProt P31749); assay: Residual activity of AKT1 at 0.1 uM by microplate scintillation counting
Chain of RAC-alpha serine/threonine-protein kinase (Homo sapiens) (P31749 whole entry): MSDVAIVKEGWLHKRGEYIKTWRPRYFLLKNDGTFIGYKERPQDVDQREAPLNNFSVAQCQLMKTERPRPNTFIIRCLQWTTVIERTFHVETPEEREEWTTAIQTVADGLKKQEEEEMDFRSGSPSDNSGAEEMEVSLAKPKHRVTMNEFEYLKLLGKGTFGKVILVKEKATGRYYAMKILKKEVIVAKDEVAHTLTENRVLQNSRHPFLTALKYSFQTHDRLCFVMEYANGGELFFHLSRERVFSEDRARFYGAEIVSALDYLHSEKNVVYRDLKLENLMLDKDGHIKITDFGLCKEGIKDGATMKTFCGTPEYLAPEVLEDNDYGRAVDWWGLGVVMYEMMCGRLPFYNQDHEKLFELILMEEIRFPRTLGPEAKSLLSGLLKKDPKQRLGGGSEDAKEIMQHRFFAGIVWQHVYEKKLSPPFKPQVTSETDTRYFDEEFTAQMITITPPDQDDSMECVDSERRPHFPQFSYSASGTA

[4] = target: T2, Serine/threonine-protein kinase DCLK2 (Homo sapiens) (UniProt Q8N568); assay: Residual activity of DCAMKL2 at 10 uM by microplate scintillation counting
T2 sequence (whole entry): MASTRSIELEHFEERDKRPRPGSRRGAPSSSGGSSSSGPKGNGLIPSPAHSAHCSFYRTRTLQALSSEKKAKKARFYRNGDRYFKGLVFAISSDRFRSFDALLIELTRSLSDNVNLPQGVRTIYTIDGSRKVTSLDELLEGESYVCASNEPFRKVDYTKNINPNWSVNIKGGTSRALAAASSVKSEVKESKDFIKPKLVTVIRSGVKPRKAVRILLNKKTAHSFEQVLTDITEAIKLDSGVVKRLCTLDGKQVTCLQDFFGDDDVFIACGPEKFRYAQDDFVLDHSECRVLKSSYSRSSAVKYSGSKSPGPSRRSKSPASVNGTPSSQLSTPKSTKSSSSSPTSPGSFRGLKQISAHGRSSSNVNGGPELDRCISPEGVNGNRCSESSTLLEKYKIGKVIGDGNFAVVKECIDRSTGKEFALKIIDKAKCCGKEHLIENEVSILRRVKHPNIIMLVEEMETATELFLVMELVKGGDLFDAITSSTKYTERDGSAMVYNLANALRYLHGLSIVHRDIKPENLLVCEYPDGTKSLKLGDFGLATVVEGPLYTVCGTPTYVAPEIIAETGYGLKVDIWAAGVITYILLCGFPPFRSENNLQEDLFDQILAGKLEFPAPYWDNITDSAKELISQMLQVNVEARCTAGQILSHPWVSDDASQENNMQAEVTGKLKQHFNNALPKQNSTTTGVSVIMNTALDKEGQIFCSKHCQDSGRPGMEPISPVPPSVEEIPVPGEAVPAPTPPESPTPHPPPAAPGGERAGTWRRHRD

[5] = target: T3, Dual specificity protein kinase TTK (Homo sapiens) (UniProt P33981); assay: Residual activity of TTK at 10 uM by microplate scintillation counting
T3 sequence (whole entry): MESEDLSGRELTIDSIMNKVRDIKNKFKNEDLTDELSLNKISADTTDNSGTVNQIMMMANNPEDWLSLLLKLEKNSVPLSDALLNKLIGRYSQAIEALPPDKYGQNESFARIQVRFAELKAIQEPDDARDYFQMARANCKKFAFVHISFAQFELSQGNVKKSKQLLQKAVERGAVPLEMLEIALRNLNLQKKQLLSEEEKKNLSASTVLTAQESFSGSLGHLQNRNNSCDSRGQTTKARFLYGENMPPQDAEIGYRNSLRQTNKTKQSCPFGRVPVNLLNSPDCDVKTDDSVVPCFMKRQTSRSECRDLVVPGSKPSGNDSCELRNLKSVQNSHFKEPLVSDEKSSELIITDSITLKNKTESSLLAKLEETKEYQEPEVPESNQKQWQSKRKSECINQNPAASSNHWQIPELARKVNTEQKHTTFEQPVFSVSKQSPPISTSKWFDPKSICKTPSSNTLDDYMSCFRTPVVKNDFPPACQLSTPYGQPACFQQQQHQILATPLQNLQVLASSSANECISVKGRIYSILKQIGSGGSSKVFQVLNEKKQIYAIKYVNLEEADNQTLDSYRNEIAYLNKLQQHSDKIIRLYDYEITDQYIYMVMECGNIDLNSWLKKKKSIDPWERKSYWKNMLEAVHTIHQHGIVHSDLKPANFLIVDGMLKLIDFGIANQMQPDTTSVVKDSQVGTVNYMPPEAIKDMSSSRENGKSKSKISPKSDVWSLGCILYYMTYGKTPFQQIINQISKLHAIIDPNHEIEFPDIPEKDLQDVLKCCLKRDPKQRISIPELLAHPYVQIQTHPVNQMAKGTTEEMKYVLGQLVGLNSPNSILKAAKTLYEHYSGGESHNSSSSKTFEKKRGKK

[6] = test system: Mast/stem cell growth factor receptor Kit (Homo sapiens), P10721 [T670I]; assay: Residual activity of KIT T670I mutant at 10 uM by microplate scintillation counting
Chain of Mast/stem cell growth factor receptor Kit (Homo sapiens), P10721 [T670I] (P10721 whole entry T670I): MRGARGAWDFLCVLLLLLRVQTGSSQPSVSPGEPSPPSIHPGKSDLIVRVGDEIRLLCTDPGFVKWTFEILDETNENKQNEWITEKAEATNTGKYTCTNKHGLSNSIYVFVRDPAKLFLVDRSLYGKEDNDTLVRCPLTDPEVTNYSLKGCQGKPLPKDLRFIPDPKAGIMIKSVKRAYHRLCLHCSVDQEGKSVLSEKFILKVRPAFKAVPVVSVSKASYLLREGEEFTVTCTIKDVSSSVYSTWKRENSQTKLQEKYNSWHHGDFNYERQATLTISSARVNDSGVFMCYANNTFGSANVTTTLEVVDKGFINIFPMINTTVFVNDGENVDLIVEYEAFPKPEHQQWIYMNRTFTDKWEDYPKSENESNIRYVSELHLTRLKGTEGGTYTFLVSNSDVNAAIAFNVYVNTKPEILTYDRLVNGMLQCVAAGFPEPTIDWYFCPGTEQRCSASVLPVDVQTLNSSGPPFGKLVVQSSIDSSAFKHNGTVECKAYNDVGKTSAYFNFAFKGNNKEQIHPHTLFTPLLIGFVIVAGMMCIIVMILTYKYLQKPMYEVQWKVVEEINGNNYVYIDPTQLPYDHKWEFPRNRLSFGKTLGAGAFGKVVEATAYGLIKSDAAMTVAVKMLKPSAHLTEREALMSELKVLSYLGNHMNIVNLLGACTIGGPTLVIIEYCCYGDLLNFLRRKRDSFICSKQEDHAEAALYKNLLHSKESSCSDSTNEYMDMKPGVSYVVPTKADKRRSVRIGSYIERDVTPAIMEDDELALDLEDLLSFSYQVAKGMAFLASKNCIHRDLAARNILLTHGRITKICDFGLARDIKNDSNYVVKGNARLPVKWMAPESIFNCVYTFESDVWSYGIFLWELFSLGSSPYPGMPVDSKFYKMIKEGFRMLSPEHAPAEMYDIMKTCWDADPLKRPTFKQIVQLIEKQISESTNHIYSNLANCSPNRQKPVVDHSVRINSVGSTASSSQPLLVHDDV

[7] = target: Ribosomal protein S6 kinase alpha-6 (Homo sapiens) (UniProt Q9UK32); assay: Residual activity of RPS6KA6 at 1 uM by microplate scintillation counting
Chain of Ribosomal protein S6 kinase alpha-6 (Homo sapiens) (Q9UK32 whole entry): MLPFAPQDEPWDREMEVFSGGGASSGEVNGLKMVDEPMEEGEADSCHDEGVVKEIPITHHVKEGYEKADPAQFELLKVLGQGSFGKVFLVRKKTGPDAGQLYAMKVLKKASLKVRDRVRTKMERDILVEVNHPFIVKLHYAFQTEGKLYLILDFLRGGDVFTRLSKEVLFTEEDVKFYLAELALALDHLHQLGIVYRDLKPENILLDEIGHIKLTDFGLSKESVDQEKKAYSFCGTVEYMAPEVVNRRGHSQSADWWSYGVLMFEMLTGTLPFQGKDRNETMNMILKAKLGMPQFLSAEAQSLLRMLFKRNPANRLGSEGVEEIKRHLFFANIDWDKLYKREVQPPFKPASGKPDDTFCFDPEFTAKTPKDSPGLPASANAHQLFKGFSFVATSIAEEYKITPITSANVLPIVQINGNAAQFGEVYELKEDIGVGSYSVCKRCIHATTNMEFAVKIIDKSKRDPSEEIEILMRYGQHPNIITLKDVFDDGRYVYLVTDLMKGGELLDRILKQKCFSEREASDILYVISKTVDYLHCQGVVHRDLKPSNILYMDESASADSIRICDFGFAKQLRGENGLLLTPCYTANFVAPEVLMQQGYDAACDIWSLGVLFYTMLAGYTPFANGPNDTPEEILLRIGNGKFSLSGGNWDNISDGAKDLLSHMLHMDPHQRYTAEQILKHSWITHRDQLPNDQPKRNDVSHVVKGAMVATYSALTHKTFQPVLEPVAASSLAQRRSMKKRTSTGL

[8] = target: Interferon-induced, double-stranded RNA-activated protein kinase (Homo sapiens) (UniProt P19525); assay: Residual activity of EIF2AK2 at 1 uM by microplate scintillation counting
Chain of Interferon-induced, double-stranded RNA-activated protein kinase (Homo sapiens) (P19525 whole entry): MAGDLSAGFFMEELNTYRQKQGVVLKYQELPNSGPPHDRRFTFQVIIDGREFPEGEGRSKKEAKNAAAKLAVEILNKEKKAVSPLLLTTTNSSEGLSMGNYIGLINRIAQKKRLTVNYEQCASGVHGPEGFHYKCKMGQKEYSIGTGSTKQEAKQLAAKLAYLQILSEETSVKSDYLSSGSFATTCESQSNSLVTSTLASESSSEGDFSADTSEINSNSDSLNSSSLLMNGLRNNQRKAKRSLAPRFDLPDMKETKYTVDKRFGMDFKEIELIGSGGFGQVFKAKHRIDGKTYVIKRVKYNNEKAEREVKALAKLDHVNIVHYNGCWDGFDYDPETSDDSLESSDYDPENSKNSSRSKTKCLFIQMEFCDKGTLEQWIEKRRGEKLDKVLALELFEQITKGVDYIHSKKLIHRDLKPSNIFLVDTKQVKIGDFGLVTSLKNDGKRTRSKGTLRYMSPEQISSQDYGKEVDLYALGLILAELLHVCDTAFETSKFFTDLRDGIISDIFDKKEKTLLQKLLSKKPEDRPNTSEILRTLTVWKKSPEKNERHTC

[9] = target: Protein kinase C theta type (Homo sapiens) (UniProt Q04759); assay: Residual activity of PKCtheta at 0.1 uM by microplate scintillation counting
Chain of Protein kinase C theta type (Homo sapiens) (Q04759 whole entry, looked up): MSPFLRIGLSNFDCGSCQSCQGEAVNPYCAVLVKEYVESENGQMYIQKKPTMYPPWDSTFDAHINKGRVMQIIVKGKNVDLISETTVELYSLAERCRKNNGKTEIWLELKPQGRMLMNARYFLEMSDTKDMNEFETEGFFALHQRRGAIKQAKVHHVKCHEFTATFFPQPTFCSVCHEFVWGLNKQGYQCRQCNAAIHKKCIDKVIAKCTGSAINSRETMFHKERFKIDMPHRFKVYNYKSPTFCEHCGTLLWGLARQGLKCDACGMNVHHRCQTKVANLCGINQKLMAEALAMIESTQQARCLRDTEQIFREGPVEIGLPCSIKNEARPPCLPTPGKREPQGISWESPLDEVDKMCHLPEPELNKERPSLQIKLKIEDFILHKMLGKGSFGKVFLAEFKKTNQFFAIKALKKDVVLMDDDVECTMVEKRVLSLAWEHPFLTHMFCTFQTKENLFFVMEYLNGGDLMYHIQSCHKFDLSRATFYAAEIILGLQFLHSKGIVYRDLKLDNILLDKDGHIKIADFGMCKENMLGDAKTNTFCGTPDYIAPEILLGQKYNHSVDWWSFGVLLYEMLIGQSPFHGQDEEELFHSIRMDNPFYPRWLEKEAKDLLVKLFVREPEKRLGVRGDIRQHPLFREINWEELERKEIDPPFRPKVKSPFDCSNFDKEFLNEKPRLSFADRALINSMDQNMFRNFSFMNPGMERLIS

[10] = target: Serine/threonine-protein kinase SIK2 (Homo sapiens) (UniProt Q9H0K1); assay: Residual activity of SNF1LK2 at 10 uM by microplate scintillation counting
Chain of Serine/threonine-protein kinase SIK2 (Homo sapiens) (Q9H0K1 whole entry, looked up): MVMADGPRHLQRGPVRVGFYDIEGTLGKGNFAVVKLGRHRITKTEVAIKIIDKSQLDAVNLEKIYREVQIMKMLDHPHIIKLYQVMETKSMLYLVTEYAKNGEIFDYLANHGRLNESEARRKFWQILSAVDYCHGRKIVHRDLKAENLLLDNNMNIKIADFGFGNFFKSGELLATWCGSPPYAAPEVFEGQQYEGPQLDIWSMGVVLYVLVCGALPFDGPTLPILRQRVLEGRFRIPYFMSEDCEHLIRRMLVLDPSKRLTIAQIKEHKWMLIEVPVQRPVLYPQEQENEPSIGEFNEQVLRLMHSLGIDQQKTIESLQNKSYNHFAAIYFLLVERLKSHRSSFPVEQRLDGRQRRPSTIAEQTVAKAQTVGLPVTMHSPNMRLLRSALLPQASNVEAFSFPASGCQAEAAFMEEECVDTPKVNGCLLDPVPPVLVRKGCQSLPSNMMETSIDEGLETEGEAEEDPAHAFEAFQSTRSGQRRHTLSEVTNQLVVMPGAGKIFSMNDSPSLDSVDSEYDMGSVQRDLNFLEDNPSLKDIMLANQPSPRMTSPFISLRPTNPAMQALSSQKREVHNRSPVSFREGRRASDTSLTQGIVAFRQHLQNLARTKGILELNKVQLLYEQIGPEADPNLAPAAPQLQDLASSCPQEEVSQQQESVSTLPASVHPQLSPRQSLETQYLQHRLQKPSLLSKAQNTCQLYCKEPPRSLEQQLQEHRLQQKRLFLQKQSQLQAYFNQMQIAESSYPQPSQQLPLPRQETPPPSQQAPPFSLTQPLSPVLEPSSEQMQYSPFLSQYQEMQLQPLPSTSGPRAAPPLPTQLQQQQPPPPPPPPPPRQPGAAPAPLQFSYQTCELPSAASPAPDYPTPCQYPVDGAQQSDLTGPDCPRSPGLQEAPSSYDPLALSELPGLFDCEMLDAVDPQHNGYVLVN

Chain of RAC-beta serine/threonine-protein kinase (Homo sapiens) (P31751 whole entry): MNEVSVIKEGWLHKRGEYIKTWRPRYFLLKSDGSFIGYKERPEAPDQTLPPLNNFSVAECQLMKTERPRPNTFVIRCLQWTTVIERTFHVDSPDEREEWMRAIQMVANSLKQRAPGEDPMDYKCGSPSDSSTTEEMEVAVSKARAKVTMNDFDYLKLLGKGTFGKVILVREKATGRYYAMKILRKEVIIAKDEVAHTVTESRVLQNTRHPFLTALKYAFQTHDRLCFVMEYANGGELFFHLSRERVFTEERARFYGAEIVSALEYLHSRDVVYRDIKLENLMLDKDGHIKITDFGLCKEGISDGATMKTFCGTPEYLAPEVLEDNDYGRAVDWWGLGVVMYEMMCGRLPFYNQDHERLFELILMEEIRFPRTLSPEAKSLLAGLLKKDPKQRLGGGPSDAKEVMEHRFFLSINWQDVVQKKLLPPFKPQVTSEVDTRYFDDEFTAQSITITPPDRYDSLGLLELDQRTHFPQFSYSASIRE

Row | residual activity [1] | residual activity [2] | residual activity [3] | residual activity [4] | residual activity [5] | residual activity [6] | residual activity [7] | residual activity [8] | residual activity [9] | residual activity [10] | SMILES
1 | 119% | 135% | 91% | 97% | 84% | 52% | 95% | 83% | 95% | 107% | COc1cc2c(Oc3ccc(-c4nc5ccccc5s4)cc3)ncnc2cc1OCCCN1CCCC1
2 | 175% | 127% | 102% | 93% | 69% | 40% | 101% | 73% | 100% | 141% | COc1cc2c(Oc3ccc(-c4nc5ccccc5s4)cc3)ncnc2cc1OCCCN1CCN(C)CC1
3 | 167% | 126% | 100% | 115% | 70% | 18% | 97% | 72% | 95% | 241% | COc1cc2c(Oc3ccc(-c4nc5ccccc5s4)cc3F)ncnc2cc1OCCCN1CCN(C)CC1
